The values that follow come from paper PMC8213057, “Targeting ALK2: An Open Science Approach to Developing Therapeutics for the Treatment of Diffuse Intrinsic Pontine Glioma” (Journal of Medicinal Chemistry, 2020).

SMILES strings stand for the structures.

Assay [1] has as its target CDK8/cyclin C (Homo sapiens, UniProt P49336). Briefly: biochemical. The note with it: read-out: % enzyme activity, 1 μM; Run 1, Run 2.
In assay [2] the target is T1, BMPR2 (Homo sapiens, UniProt Q13873).
T1 construct: purchased Reaction Biology Corporation
T1 sequence (Q13873 27-1038): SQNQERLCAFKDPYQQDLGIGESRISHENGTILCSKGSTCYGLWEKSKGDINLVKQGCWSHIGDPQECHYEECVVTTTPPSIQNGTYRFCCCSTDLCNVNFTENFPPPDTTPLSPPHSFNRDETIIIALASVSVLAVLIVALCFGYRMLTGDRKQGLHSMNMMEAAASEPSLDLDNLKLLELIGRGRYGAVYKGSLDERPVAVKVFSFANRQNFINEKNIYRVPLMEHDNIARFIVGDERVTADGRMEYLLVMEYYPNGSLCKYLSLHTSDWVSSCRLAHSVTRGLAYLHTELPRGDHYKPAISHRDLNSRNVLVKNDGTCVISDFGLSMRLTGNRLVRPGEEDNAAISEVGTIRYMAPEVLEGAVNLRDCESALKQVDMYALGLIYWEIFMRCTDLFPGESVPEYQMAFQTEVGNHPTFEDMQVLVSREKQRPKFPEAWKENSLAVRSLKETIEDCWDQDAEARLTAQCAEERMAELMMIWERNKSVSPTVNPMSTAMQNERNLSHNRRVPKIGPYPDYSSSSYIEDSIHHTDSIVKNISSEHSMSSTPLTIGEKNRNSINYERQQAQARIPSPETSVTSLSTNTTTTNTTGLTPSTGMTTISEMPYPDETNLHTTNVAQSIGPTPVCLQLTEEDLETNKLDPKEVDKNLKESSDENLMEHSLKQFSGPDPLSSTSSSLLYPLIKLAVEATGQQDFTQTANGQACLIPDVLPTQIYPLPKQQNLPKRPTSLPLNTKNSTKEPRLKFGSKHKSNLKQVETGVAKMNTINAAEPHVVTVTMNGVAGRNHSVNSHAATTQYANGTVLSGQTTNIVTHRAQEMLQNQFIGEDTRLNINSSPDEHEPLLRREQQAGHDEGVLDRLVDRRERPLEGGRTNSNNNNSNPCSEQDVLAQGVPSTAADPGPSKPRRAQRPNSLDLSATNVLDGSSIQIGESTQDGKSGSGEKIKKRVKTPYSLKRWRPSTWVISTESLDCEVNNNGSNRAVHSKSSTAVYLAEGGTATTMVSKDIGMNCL
As to the kind of experiment: 375-member kinase panel. The assay is classed as biochemical. The note with it: Run 1, Run 2; for % enzyme activity: 1 μM; for remaining activity at 1 µM: read-out: % enzyme activity, 1 μM.

In assay [3] the target is T2, VRK1 (Homo sapiens, UniProt Q99986).
T2 sequence (Q99986 1-396): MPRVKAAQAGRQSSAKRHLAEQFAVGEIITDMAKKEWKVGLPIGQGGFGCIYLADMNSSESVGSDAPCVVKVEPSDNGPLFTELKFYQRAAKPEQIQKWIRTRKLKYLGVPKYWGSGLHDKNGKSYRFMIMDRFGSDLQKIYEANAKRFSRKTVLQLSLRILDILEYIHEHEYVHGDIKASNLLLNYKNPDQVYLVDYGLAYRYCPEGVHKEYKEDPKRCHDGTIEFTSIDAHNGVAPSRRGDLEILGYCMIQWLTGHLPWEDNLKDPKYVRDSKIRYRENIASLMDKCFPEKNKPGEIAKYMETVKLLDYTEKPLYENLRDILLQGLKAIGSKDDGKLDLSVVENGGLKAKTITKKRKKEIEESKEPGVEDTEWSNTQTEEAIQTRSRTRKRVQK
Briefly: biochemical. The note with it: read-out: % enzyme activity, 1 μM; Run 1, Run 2.

The target in assay [4] is PKN3/PRK3 (Homo sapiens, UniProt Q6P5Z2). Briefly: biochemical. The note with it: read-out: % enzyme activity, 1 μM; Run 1, Run 2.
The target in assay [5] is CDK6/cyclin D1 (Homo sapiens, UniProt Q00534). As to conditions: 1 μM; Run 1, Run 2.
In assay [6] the target is MST3/STK24 (Homo sapiens, UniProt Q9Y6E0). As to the kind of experiment: biochemical. As to conditions: read-out: % enzyme activity, 1 μM; Run 1, Run 2.
Assay [7] concerns the target T3, MEK3 (Homo sapiens, UniProt P46734).
T3 sequence (P46734 1-347): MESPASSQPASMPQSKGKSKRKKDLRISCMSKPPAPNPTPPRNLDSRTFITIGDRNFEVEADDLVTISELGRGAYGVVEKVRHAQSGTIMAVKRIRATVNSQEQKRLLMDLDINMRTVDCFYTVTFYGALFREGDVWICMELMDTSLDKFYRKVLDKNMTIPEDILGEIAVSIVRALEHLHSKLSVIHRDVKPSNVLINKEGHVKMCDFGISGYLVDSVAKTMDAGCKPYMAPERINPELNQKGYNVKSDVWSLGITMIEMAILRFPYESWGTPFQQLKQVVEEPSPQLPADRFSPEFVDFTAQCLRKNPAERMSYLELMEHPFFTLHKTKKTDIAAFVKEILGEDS
The note with it: 1 μM; Run 1, Run 2.

Assay [8] addresses MSSK1/STK23 (Homo sapiens, UniProt Q9UPE1). The note with it: 1 μM; Run 1, Run 2.
In assay [9] the target is EGFR (Homo sapiens, UniProt P00533). Briefly: biochemical. The note with it: read-out: % enzyme activity, 1 μM; Run 1, Run 2.
Sequence of EGFR (P00533 25-1210): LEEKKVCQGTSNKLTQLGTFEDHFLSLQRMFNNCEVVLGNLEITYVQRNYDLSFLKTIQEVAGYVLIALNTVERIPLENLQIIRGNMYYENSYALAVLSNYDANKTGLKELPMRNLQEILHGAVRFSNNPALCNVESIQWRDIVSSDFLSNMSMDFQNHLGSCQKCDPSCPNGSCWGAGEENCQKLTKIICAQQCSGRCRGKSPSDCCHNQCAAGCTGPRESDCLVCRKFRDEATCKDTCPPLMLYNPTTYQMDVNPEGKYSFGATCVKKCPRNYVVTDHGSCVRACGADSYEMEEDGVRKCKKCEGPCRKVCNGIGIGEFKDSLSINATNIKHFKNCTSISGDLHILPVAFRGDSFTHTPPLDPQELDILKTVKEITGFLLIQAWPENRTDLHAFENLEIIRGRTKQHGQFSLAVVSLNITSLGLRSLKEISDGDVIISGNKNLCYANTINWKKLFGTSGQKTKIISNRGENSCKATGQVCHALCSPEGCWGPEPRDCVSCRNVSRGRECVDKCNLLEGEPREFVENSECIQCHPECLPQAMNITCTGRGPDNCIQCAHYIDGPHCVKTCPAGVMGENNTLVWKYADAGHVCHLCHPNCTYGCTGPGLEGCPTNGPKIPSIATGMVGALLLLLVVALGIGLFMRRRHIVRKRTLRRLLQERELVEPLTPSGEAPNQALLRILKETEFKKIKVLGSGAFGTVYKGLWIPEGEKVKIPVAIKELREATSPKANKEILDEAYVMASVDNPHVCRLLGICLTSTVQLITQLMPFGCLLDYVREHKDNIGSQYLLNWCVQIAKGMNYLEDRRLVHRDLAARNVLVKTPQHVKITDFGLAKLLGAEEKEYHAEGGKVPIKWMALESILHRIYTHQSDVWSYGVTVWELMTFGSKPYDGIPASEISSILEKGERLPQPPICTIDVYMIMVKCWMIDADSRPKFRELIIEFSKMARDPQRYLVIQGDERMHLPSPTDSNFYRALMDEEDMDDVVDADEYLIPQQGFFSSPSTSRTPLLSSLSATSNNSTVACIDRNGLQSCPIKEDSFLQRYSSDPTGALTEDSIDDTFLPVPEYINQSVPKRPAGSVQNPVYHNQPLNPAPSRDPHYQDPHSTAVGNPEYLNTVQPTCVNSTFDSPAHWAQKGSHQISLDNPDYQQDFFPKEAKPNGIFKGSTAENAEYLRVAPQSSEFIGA

Sequence of MST3/STK24 (Q9Y6E0 whole entry): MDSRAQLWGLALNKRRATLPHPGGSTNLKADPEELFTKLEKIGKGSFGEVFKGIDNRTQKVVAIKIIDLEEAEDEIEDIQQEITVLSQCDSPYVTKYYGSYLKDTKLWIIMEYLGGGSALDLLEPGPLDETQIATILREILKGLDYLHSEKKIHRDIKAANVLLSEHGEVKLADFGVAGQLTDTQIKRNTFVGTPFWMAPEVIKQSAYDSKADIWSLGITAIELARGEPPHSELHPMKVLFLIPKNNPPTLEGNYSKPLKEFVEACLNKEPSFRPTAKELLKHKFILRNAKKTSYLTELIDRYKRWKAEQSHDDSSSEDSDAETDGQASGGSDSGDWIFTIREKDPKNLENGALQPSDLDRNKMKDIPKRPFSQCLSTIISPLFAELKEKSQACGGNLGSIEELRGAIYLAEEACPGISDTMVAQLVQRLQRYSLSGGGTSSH
Sequence of MSSK1/STK23 (Q9UPE1 whole entry): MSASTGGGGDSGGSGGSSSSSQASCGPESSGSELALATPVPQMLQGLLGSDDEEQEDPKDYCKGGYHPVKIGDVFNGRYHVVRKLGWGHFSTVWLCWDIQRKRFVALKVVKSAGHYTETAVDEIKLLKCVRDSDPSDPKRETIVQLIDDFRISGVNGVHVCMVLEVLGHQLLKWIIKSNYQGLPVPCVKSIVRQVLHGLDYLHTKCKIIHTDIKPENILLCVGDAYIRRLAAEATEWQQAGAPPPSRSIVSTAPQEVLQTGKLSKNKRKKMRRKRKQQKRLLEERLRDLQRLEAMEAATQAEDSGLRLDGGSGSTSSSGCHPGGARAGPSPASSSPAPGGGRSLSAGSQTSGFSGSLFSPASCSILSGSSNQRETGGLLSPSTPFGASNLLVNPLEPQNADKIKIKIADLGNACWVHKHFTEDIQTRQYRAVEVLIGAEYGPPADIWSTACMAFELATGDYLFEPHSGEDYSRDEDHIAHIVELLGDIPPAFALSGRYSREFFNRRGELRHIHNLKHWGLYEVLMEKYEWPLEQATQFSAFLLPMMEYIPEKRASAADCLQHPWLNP
Sequence of CDK8/cyclin C (P49336 whole entry): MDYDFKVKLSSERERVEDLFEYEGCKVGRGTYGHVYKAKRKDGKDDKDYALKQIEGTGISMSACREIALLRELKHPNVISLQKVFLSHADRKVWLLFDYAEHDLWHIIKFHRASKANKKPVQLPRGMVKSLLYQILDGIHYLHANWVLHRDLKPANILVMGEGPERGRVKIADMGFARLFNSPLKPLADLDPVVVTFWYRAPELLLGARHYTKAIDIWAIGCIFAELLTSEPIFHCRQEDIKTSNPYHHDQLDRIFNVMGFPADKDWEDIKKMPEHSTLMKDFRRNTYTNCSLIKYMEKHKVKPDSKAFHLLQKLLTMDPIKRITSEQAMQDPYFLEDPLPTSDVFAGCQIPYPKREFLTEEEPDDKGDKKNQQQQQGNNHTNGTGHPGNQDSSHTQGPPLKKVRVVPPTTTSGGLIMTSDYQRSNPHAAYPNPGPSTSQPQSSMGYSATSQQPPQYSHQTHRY
Sequence of CDK8/cyclin C (P24863 whole entry partner): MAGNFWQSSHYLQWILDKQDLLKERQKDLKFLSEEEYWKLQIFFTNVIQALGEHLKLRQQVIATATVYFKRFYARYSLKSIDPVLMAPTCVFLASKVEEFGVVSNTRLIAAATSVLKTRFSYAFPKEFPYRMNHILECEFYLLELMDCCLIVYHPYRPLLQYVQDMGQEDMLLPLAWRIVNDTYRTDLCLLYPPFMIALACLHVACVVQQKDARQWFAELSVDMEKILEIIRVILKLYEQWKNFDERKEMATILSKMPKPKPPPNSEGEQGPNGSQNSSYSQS
Sequence of CDK6/cyclin D1 (Q00534 whole entry): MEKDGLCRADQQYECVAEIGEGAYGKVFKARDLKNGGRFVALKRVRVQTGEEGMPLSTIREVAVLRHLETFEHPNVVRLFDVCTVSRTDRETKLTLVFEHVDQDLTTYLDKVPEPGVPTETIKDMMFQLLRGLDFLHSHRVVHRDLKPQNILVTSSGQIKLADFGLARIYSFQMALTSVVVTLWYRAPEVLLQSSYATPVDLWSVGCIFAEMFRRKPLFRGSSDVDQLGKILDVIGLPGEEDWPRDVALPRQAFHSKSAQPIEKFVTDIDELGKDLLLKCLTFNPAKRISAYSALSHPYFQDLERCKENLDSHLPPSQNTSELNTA
Sequence of CDK6/cyclin D1 (P24385 whole entry partner): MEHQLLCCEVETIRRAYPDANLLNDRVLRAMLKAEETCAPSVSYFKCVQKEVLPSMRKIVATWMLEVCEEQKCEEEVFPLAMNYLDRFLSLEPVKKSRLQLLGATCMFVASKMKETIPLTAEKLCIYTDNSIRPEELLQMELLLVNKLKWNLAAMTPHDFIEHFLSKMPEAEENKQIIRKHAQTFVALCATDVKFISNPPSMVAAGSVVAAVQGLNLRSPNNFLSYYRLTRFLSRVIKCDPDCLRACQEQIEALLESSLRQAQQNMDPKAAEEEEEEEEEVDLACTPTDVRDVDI
Sequence of PKN3/PRK3 (Q6P5Z2 whole entry): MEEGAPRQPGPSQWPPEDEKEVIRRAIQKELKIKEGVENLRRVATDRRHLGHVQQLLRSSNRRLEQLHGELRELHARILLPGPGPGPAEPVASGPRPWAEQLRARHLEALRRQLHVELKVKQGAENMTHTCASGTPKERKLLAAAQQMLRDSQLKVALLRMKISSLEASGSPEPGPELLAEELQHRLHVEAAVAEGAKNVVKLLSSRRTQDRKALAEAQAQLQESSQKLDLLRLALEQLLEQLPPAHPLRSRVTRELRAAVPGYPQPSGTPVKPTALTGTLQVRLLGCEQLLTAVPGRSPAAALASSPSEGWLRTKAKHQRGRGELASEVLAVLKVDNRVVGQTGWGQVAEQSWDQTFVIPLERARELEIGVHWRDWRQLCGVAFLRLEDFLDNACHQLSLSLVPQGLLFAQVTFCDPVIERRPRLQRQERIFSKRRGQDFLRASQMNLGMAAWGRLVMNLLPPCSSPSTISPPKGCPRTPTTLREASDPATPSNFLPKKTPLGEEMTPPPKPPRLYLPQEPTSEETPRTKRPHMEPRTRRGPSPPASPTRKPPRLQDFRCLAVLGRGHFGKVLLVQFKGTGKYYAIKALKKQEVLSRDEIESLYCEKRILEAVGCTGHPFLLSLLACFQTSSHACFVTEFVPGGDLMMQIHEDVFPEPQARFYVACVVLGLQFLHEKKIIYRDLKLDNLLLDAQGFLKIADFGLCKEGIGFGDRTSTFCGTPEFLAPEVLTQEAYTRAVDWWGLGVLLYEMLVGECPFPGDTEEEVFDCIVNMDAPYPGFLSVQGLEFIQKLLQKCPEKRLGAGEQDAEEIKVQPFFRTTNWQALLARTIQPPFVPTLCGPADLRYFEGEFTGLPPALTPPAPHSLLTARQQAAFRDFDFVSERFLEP

Take `COc1cc(-c2cncc(-c3ccc(N4CCN(C)CC4)cc3)c2C)cc(F)c1C(N)=O` [Compound 26a, 2-Fluoro-6-methoxy-4-(4-methyl-5-(4-(4-methylpiperazin-1-yl)phenyl)pyridin-3-yl)benzamide]: the remaining activity at 1 µM in assay [1] amounted to 84.6%; in assay [2] it was 89.1%; in assay [3], 104%; in assay [4] it was 95%; in [6], 90.2%; in assay [9], 96%. For the same compound, the “% enzyme activity” value worked out at 88.40% in [2], 97.80% in assay [5], 100.94% in [7] and 98.71% in [8].

For `COc1cc(-c2cncc(-c3ccc(N4C[C@@H](C)N(C)[C@@H](C)C4)cc3)c2C)cc(F)c1C(N)=O` [Compound 26c, 2-Fluoro-6-methoxy-4-(4-methyl-5-(4-((3R,5S)-3,4,5-trimethylpiperazin-1-yl)phenyl)pyridin-3-yl)benzamide], the remaining activity at 1 µM in assay [1] was determined as 93.1%; in assay [2] it was 104%; in assay [3], 102%; in assay [4] it was 98.4%; in assay [6], 96.3%; in assay [9], 95.3%. Moreover, the “% enzyme activity” value was found to be 100.11% in assay [2], 92.80% in assay [5], 101.33% in assay [7] and 99.23% in assay [8].
